This note sets out measurements from US20070190191A1, “Use of geraniol in antitumoral therapy” (priority 2003, published 2007).

Molecules are shown by their SMILES. Where two headings read alike, the source gives them in different places.

Data set [1] relates to Caco-2 cells. The data set is described as follows: Electron microscopy of Caco-2 cell morphological differentiation. The format is cell-based, human. To be noted: confluent Caco-2 cells (7 days after seeding) treated 4 days; geraniol 400 μM, 5-FU 5 μM. The procedure:
Caco-2 and SW620 cells were obtained from the European Collection of Animal Cell Culture (CERDIC, Sophia Antipolis, France) and were cultured in 75-cm^2 Falcon flasks containing Dulbecco's modified Eagle's medium (DMEM) and 25 mM glucose supplemented with 10% heat-inactivated horse serum, 100 U/ml penicillin, and 100 μg/ml streptomycin. Cells were incubated at 37° C. in a humidified atmosphere of 5% CO2 and subcultured after trypsinization (0.5% trypsin/2.6 mM EDTA). They were used for up to 30 to 40 passages.
(§1) In all experiments, cells were seeded at 6×10^5 cells on culture dishes (100 mm in diameter), or at 4500 cells/well in 96-well plates. Caco-2 and SW620 cells were grown in DMEM supplemented with 3% horse serum, 5 μg/ml transferrin, 5 ng/ml selenium, and 10 μg/ml insulin (TSI defined medium; Invitrogen, SARL, Cergy-Pontoise, France). Geraniol (Sigma-Aldrich, Saint Louis, Mo.) was dissolved in absolute ethanol, and 5-FU (Teva Pharmachemie B.V., Mijdrecht, The Netherlands) was diluted in PBS at a final concentration of 50 mg/ml. The compounds were added to the culture medium 24 h or 7 days after cell seeding (final concentration of ethanol, 0.1%).
In all experimental conditions, culture medium, geraniol, and 5-FU were replaced every 24 h. […]

Data set [2] relates to Caco-2 cells. Kind of data set: Brush-border membrane hydrolase assays (functional differentiation). Format: cell-based. Conditions: Homo sapiens, 168 h, 400 μM geraniol, Caco-2 at confluency (7 days after seeding), brush-border membranes. The procedure:
Brush-border membranes were isolated as described by Schmitz et al. (1973). Sucrase activity was determined according to Messer and […] (1966) and lactase activity according to Koldovsky et al. (1969). Alkaline phosphatase activity was assayed by the method of Garen and […] (1960), and N-aminopeptidase activity was determined according to Maroux et al. (1973).

A further data set deals with confluent Caco-2 cells. Kind of data set: Cell growth (sulforhodamine B), confluent Caco-2 cells. The format is cell-based, human. Conditions: for cell loss: confluent Caco-2, 8 days treatment, geraniol 400 μM (IC30), 5-FU 1 μM. The protocol:
as §1
In all experimental conditions, culture medium, geraniol, and 5-FU were replaced every 24 h. Cells were harvested after various times, washed three times with phosphate-buffered saline (PBS) (pH 7.2), and kept at −70° C. until assays were performed.
(§2) Cells were seeded in 96-well plates and incubated for different times. Cell growth was stopped by addition of 50 μl of trichloroacetic acid (50%, v/v), and the protein content of each well was determined by staining with sulforhodamine B (Skehan et al., 1990): Absorbance was determined at 490 nm.
The effects of increasing doses of 5-FU alone or in combination with geraniol were determined after treatment for 8 days. […] Geraniol and 5-FU were replaced every 24 h.
Statistical differences between control and geraniol-treated cells were evaluated using the Student's t test. Differences were considered to be significant for values of p<0.05.

In a further data set the test system is growing Caco-2 cells. Kind of data set: Cell growth (sulforhodamine B), exponentially growing Caco-2 cells. The format is cell-based, human. The procedure: as §1, §2
(§3) The comparative effects of geraniol and 5-FU were studied on exponentially growing Caco-2 and SW620 cells. Cells were cultured as described in Example 1. […]
(§4) The effects of graded doses of 5-FU alone or in combination with geraniol were determined. […]

The subject of data set [3] is Caco-2 cells. Kind of data set: Cytotoxicity by LDH release into the culture medium. To be noted: confluent Caco-2 (7 days after seeding), 4 days treatment, geraniol alone 400 μM. Format: cell-based, human.
Description: To determine cytotoxicity, cells (4×10^5/well) were seeded on culture dishes (100 nm diameter) and incubated in DMEM culture medium supplemented with 3% FCS. On the 7th day after seeding, cells were incubated with 5-FU (5 μM) alone or together with geraniol (IC30: 400 μM) and 5-FU for 1, 2, 3, and 4 days. Then, cytotoxicity was assessed by determining the release of lactate dehydrogenase (LDH) (Skehan et al., 1990) into the culture medium using the Cyto Tox R nonradioactive cytotoxicity assay kit (Promega, Madison, Wis.).
The subject of data set [4] is human colonic tumors TC-118. The data set is described as follows: Growth of 5-FU-resistant human colonic tumors transplanted in nude mice. Format: in vivo, Swiss nu/nu mice. Conditions: day 14. The protocol:
The effect of geraniol and 5-FU were evaluated in vivo on the growth of 5-FU-resistant human colonic tumors ([…]) transplanted in Swiss nu/nu mice. TC 118 is the hepatic metastasis of a primary human colorectal tumor is used as xénogreffe. Fresh fragments of the tumor are implanted in the subcutaneous tissue of female Swiss nulnu mice of from 5 to 6 weeks. The appearance of the tumor is watched by a bi-weekly exam of mice and the time of appearance is registered. Tumors are detected by palpation as soon as they measure approximately 3×3 mm (that is approximately 15 mm^3). […] Tumors are measured with a calliper rule, 3 times a week, until the sacrifice of the animal. Two perpendicular diameters are measured and the volumes of tumors are calculated according to the following equation: V=A×B^2/2 where A represents the large diameter and B the small diameter. The relative tumoral volume (VTR) is calculated according to the formula: VTR=Volume at day D/Initial volume […] When these molecules were given in combination, they were injected simultaneously. A control group was treated with excipient (NaCl 0.9%). The mean value of the VTR was calculated for every group on every day corresponding to the measure of tumors. The curves of tumoral growth were obtained in every experimental group or for every individual tumor by reporting the values of the VTR as a function of time (expressed in days after the beginning of the treatment). The measures were individually recorded, allowing a follow-up of the tumoral growth. […] Mice not presenting tumors were sacrificed at the same time. The percentage of inhibition of the tumoral growth was calculated at day 14 for the various treatments, according to the formula: (VTR of treated mice/VTR of control mice)×100. Results

For data set [5], the system named is Caco-2 cells. The data set is described as follows: Caco-2 cell growth with CPT-11 and geraniol. Conditions: Homo sapiens, 192 h, Caco-2, 8 days treatment. The format is cell-based. The protocol: as §2
The effect of various doses of CPT-11 alone or in combination with geraniol was determined after 8 days of treatment of Caco-2 cells. Concentrations of CPT-11 of from 0.2 to 0.8 μM were tested and geraniol was used at a concentration which induces a 10% inhibition of the cell growth (IC10).

In another data set the test system is SW620 cells. Kind of data set: Cell growth (sulforhodamine B), growing SW620 cells. Format: cell-based. To be noted: Homo sapiens, SW-620, 192 h, 8 days treatment, in the combination geraniol at IC30, read-out: IC50 5-FU, SW620. The protocol: as §1, §2, §3, §4
Data set [6] concerns Caco-2 cells. The data set is described as follows: Apoptosis: DNA fragmentation ladder and annexin V-FITC labeling. The format is cell-based, human. To be noted: exponentially growing and confluent Caco-2 cells, 24 h; 5-FU 5 μM, geraniol IC30 400 μM. The procedure: After trypsinization, cells were collected by centrifugation and stored at −80° C. Apoptotic DNA was separated from genomic DNA, using the Suicide Track DNA ladder kit (Oncogene Research Products, Cambridge, Mass.). DNA fragments were separated by electrophoresis and stained with ethidium bromide. Apoptosis was further tested by evaluating phosphatidylserine membrane externalization by measuring annexin V-conjugated fluorescein isothiocyanate (FITC) binding using an Annexin V-FITC kit (Medsystems Diagnostics GmbH, Vienna, Austria). Briefly, cells were washed in cold PBS without calcium and, for each sample, 5×10^5 cells were resuspended in 100 μl of reaction buffer (10 μl of binding buffer 10-fold concentrated, 10 μl of propidium iodide, 1 μl of annexin V-FITC, and 79 μl of deionized water. After incubation for 15 min in the dark at room temperature, each sample was diluted with binding buffer to obtain an appropriate final volume for flow cytometry.

Regarding `CC(C)=CCC/C(C)=C/CO` [geraniol], the “brush-border microvilli (transmission electron microscopy)” value with Caco-2 cells [1] was “microvilli were scarce, and they were shorter”. Besides, the inhibition – broadly, the drop in the measured response relative to a control, in per cent – at 400 µM was ~50% with Caco-2 cells [2] (read-out: inhibition of the increase in alkaline phosphatase activity), ~50% with Caco-2 cells [2] (read-out: inhibition of the increase in aminopeptidase activity), ~70% in the data set on Caco-2 cells [2] (read-out: inhibition of the increase of lactase activity) and ~90% in the data set on Caco-2 cells [2] (read-out: inhibition of the increase of sucrase activity). Moreover, the IC30 of geraniol was 400 µM with confluent Caco-2 cells (Caco-2 cells at confluency) and 200 µM with growing Caco-2 cells (growing Caco-2 cells). In addition, in the data set with confluent Caco-2 cells, the cell loss is on record as 30%. Further, in the data set with Caco-2 cells [3], the “cytotoxic effect (LDH release)” value is reported as “no cytotoxic effect”. The “inhibition of the tumoral growth” value in data set [4] (geraniol alone 150 mg/kg/day i.p. for 5 days) was 26%. The IC50 (usually the concentration that gives 50% inhibition) in the data set with Caco-2 cells [5] (in the combination CPT-11 at IC10, read-out: IC50 Geraniol) turned out to be 200 ± 0.03 µM.

With `CCc1c2c(nc3ccc(OC(=O)N4CCC(N5CCCCC5)CC4)cc13)-c1cc3c(c(=O)n1C2)COC(=O)[C@]3(O)CC` [CPT-11, irinotecan, reference compound], in the data set with Caco-2 cells [5] (in the combination geraniol at IC10, read-out: IC50 CPT-11), the IC50 was found to be 0.7 µM.

For the compound `O=c1[nH]cc(F)c(=O)[nH]1` [5-FU, 5-fluorouracil], in the data set with Caco-2 cells [1], the “brush-border microvilli (transmission electron microscopy)” value was “did not modify brush-border membranes”. In addition, the IC50 with confluent Caco-2 cells (Homo sapiens, Caco-2, 192 h, 8 days treatment, in the combination geraniol at its IC30 (400 μM), read-out: IC50 5-FU, Caco-2 Confluent) was found to be 25 µM; with growing Caco-2 cells (Homo sapiens, Caco-2, 8 days treatment from 24 h after seeding, in the combination geraniol at its IC30 (200 μM), read-out: IC50 5-FU, Caco-2 Growing), 0.4 µM; with SW620 cells it was 2 µM. Also, the cell loss with confluent Caco-2 cells is given as 25%. For the same compound, in the data set with Caco-2 cells [6], the “annexin V labeling (flow cytometry)” value is on record as “absence of annexin V labeling”. The “apoptotic DNA fragmentation ladders” value in the data set with Caco-2 cells [6] is recorded as “did not exhibit apoptotic DNA fragmentation ladders”. Besides, the “inhibition of the tumoral growth” value is on record as “no effect” in data set [4] (5-FU alone 20 mg/kg/day i.p. for 5 days) and 30% in data set [4] (5-FU alone 40 mg/kg/day i.p. for 5 days).
